Measurements published in patent US10849893B2 (Athenex HK Innovative Limited, priority 2018, dated 2020).
Values joined by “and” are separate entries in the source; they are usually repeats but may differ in a detail not shown here. Identical values can stand only once. Like-named read-outs stand apart in the source and are kept apart here.

Experiments:
[1] = clinical
[2] = Two phase 1 studies of docetaxel capsules administered orally in combination with HM30181A; assay type: in vivo, human
[3] = for Reported half-life: individual values, sampling to 168 h, LLOQ 0.2 ng/mL
[4] = male, human, in vivo, po, 75 mg/m2
[5] = mean oral (75 mg/m^2) as % of mean IV (60 mg/m^2)
[6] = oral 35 mg/m^2 with Compound A, Mean, N=4
[7] = oral 35 mg/m^2 with Compound A, individual subjects
[8] = oral 75 mg/m^2 with Compound A, Mean, N=3
[9] = oral 75 mg/m^2 with Compound A, individual subjects
[10] = oral 75 mg/m^2 with Compound A, individual subjects, listed as Docetaxel
[11] = oral 150 mg/m^2 with Compound A, individual subjects
[12] = oral 225 mg/m^2 with Compound A, Mean, N=3
[13] = oral 225 mg/m^2 with Compound A, individual subjects
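For AUC % Extrapobs in this document: noncompartmental pharmacokinetic analysis in subjects with solid tumors, using linear-up log-down interpolation, with terminal slope time points picked automatically by the software.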
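For AUC0-12 in this document: noncompartmental pharmacokinetic analysis in subjects with solid tumors, using linear-up log-down interpolation, with terminal slope time points picked automatically by the software.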
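For Reported half-life in this document: noncompartmental pharmacokinetic analysis in subjects with solid tumors, using linear-up log-down interpolation, with terminal slope time points picked automatically by the software.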
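For docetaxel plasma concentration vs in vitro target IC50 of 5 nM (4 ng/mL) in this document: noncompartmental pharmacokinetic analysis in subjects with solid tumors, using linear-up log-down interpolation, with terminal slope time points picked automatically by the software.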

CC(=O)O[C@@]12CO[C@@H]1C[C@H](O)[C@@]1(C)C(=O)[C@H](O)C3=C(C)[C@@H](OC(=O)[C@H](O)[C@@H](NC(=O)OC(C)(C)C)c4ccccc4)C[C@@](O)([C@@H](OC(=O)c4ccccc4)[C@H]21)C3(C)C [docetaxel, (2aR,4S,4aS,6R,9S,11S,12S,12aR,12b S)-12b-acetoxy-9-(((2R,3S)-3-((tert-butoxycarbonyl)amino)-2-hydroxy-3-phenylpropanoyl)oxy)-4,6,11-trihydroxy-4a,8,13,13-tetramethyl-5-oxo-2a,3,4,4a,5,6,9,10,11,12,12a, 12b-dodecahydro-1H-7,11-methanocyclodeca[3,4]benzo[1,2-b]oxet-12-yl benzoate]
Tmax Mean % ([1]; male, human, in vivo): 207.55% | Average Time above Target (0 to last time point measured above 4 ng/ml) ([1]; male, human, in vivo, iv): 40.9 h | Dose Normalized AUC ([1]; male, human, in vivo, iv): 27.17 ng·h/mL | AUC(0-t) ([1]; male, human, in vivo, iv, 60 mg/m2, AUC0-24): 1350 to 1970 ng·h/mL | AUC(0-inf) ([1]; male, human, in vivo, iv, 60 mg/m2, AUC0-inf): 1970 ng·h/mL | AUC(0-t) ([1]; male, human, in vivo, iv, 60 mg/m2, AUC0-t): 1890 ng·h/mL | Cmax ([1]; male, human, in vivo, iv, 60 mg/m2, Cmax): 1020 to 1570 ng/mL | Tmax ([1]; male, human, in vivo, iv, 60 mg/m2, Tmax): 0.88 h | half-life ([1]; male, human, in vivo, iv, Reported half-life): 17.4 h | Average Time above Target (0 to last time point measured above 4 ng/ml) ([1]; male, human, in vivo, po): 20.5 h | Dose Normalized AUC ([1]; male, human, in vivo, po): 23.33 ng·h/mL | AUC(0-inf) [1, 4]: 476 ng·h/mL | half-life [1, 4]: 21.3 h | AUC(0-t) ([1]; male, human, in vivo, po, 75 mg/m2, AUC0-24): 313 to 336 ng·h/mL | AUC(0-inf) ([1]; male, human, in vivo, po, 75 mg/m2, AUC0-inf): 478 ng·h/mL | AUC(0-t) ([1]; male, human, in vivo, po, 75 mg/m2, AUC0-t): 395 ng·h/mL | half-life ([1]; male, human, in vivo, po, 75 mg/m2, Reported half-life): 16.4 h | Tmax ([1]; male, human, in vivo, po, 75 mg/m2, Tmax): 1.83 h | Cmax Mean % [1, 5]: 7.87% | t1/2 Mean % [1, 5]: 104.60% | AUC ([2]; human, plasma, iv, 75 mg/m2, IV 75 mg/m^2): 2420 ng·h/mL | AUC ([2]; human, plasma, po, oral 35 mg/m^2 with HM30181A 15 mg): 248 ng·h/mL | AUC ([2]; human, plasma, po, oral 75 mg/m^2 with HM30181A 15 mg): 692 ng·h/mL | AUC ([2]; human, plasma, po, oral 150 mg/m^2 with HM30181A 15 mg): 888 ng·h/mL | AUC ([2]; human, plasma, po, oral 225 mg/m^2 with HM30181A 15 mg): 1400 ng·h/mL | bioavailability ([2]; human, plasma, oral 75 mg/m^2 with HM30181A 15 mg, read-out: Individual F %): 20 to 31% | Tmax ([2]; human, plasma, oral capsules in combination with HM30181A): 3 to 4 h | half-life ([2]; human, plasma, oral capsules in combination with HM30181A, read-out: terminal phase half-life (converted)): ~56 h | Cmax as % of that observed after IV administration ([2]; oral with HM30181A vs IV): 9.5-13% | docetaxel plasma concentration vs in vitro target IC50 of 5 nM (4 ng/mL) ([3]; individuals administered 35 or 75 mg/m^2 oral docetaxel): > 4 ng/mL | Reported half-life ([3]; oral 35 mg/m^2): 35 mg/m^2: 3.4 h, and 19.1 h and 65.3 h | Average Time above Target (0 to last time point measured above 4 ng/ml) ([3]; oral 35 mg/m^2 SD): 7.5 h | Dose Normalized AUC ([3]; oral 35 mg/m^2 with Compound A): 39.97 | AUC % Extrapobs [3, 6]: 7.51% | Tmax [3, 6]: 1.50 h | AUC0-12 [3, 7]: 145 ng·h/mL and 39.8 ng·h/mL and 198 ng·h/mL and 353 ng·h/mL | AUC0-24 [3, 7]: 178 ng·h/mL and 46.1 ng·h/mL and 227 ng·h/mL and 392 ng·h/mL | AUC0-48 [3, 7]: 218 ng·h/mL and 46.1 ng·h/mL and 257 ng·h/mL and 440 ng·h/mL | AUC % Extrapobs [3, 7]: 7.76% and 11.4% and 3.39% and 7.45% | AUCINF—obs [3, 7]: 259 ng·h/mL and 44.9 ng·h/mL and 279 ng·h/mL and 599 ng·h/mL | Cmax [3, 7]: 38.0 ng/mL and 73.0 ng/mL and 157 ng/mL and 8.59 ng/mL | Tmax [3, 7]: 2.00 h and 1.00 h | t1/2 [3, 7]: 22.8 h and 3.40 h and 19.1 h and 65.3 h | AUC0-24 ([3]; oral 35 mg/m^2 with Compound A, individual subjects by cancer diagnosis): 170 to 392 ng·h/mL | AUC0-24 ([3]; oral 35 mg/m^2 with Compound A, individual subjects by cancer diagnosis, listed as Docetaxel): 170 ng·h/mL and 227 ng·h/mL and 392 ng·h/mL | Reported half-life ([3]; oral 75 mg/m^2): 62.4 h and 45.8 h | Average Time above Target (0 to last time point measured above 4 ng/ml) ([3]; oral 75 mg/m^2 SD): 21.5 h | Dose Normalized AUC ([3]; oral 75 mg/m^2 with Compound A): 38.23 | AUC0-12 [3, 8]: 512 ng·h/mL | AUC0-24 [3, 8]: 598 ng·h/mL | AUC % Extrapobs [3, 8]: 3.89% | Tmax [3, 8]: 2.00 h | Cmax [3, 9]: 81.6 to 190 ng/mL | Tmax [3, 9]: 2.00 h | AUC0-24 ([3]; oral 75 mg/m^2 with Compound A, individual subjects by cancer diagnosis): 304 to 1030 ng·h/mL | AUC0-24 ([3]; oral 75 mg/m^2 with Compound A, individual subjects by cancer diagnosis, listed as Docetaxel): 461 ng·h/mL and 304 ng·h/mL and 1030 ng·h/mL | AUC0-12 [3, 10]: 390 ng·h/mL and 270 ng·h/mL and 875 ng·h/mL | AUC0-24 [3, 10]: 461 ng·h/mL and 304 ng·h/mL and 1030 ng·h/mL | AUC0-48 [3, 10]: 543 ng·h/mL and 334 ng·h/mL and 1150 ng·h/mL | AUC % Extrapobs [3, 10]: 4.31% and 4.87% and 2.50% | AUCINF—obs [3, 10]: 690 ng·h/mL and 409 ng·h/mL and 1350 ng·h/mL | Cmax [3, 10]: 165 ng/mL and 81.6 ng/mL and 190 ng/mL and 270 ng/mL | t1/2 [3, 10]: 62.1 h and 45.8 h | Reported half-life ([3]; oral 150 mg/m^2): 53.3 h and 63.3 h | Average Time above Target (0 to last time point measured above 4 ng/ml) ([3]; oral 150 mg/m^2 SD): 15.5 h | Dose Normalized AUC ([3]; oral 150 mg/m^2 with Compound A): 26.70 | AUC0-12 [3, 11]: 898 ng·h/mL and 650 ng·h/mL | AUC0-24 [3, 11]: 1050 ng·h/mL and 720 ng·h/mL and 490 ng·h/mL | AUC0-48 [3, 11]: 1150 ng·h/mL and 775 ng·h/mL and 538 ng·h/mL | AUC % Extrapobs [3, 11]: 5.59% and 2.53% and 5.32% | AUCINF—obs [3, 11]: 1380 ng·h/mL and 876 ng·h/mL and 673 ng·h/mL | Cmax [3, 11]: 136 ng/mL and 112 ng/mL | Tmax [3, 11]: 2.00 h and 4.00 h | t1/2 [3, 11]: 63.3 h | AUC0-24 ([3]; oral 150 mg/m^2 with Compound A, individual subjects by cancer diagnosis): 490 to 1050 ng·h/mL | AUC0-24 ([3]; oral 150 mg/m^2 with Compound A, individual subjects by cancer diagnosis, listed as Docetaxel): 1050 ng·h/mL and 720 ng·h/mL and 490 ng·h/mL | AUC0-12 [3, 12]: 618 ng·h/mL | AUC % Extrapobs [3, 12]: 4.93% | Cmax [3, 12]: 114 ng/mL | Tmax [3, 12]: 1.00 h | AUC0-12 [3, 13]: 835 ng·h/mL and 380 ng·h/mL and 637 ng·h/mL | AUC0-24 [3, 13]: 416 ng·h/mL and 974 ng·h/mL | AUC0-48 [3, 13]: 1100 ng·h/mL and 443 ng·h/mL and 1200 ng·h/mL
